Laboratory results from patent US8969403B2, “Crystalline forms of a 3-[2-methanesulfonyl-1-(4-trifluoromethyl-phenoxy)ethyl]pyrrolidine compound” (Theravance Biopharma R&D IP, LLC, priority 2011, dated 2015).

Experiments:
[1] = Slurry conversion of mixed anhydrous Form I and Form II in MTBE:water (95:5); assay type: physicochemical; conditions: equal amounts Form I and Form II, room temperature, three days
Description: Equal amounts (˜50 mg) of anhydrous Form I and anhydrous Form II were weighed out and physically mixed in a vial with a spatula. A solution of MTBE:water (95:5) was added to this solid mixture and stirred to form a suspension. The suspension was stirred at room temperature for three days and filtered through a filter paper. The solid residue was allowed to dry under ambient conditions and analyzed with powder X-ray diffractometry and DSC.

[2] = Dynamic moisture sorption (DMS) assessment; assay type: physicochemical; conditions: for crystalline form after the DMS experiment (by PXRD, DSC, TGA): 5% RH to 90% RH adsorption/desorption, 25° C.; for moisture picked up during the adsorption segment (DMS): 5% RH to 90% RH, isothermal 25° C., desorption matches adsorption, no hysteresis
Description: Dynamic moisture sorption (DMS) measurements were performed for each crystalline form using a VTI atmospheric microbalance, SGA-100 system (VTI Corp., Hialeah, Fla. 33016). A weighed sample was used and the humidity was set at the ambient value at the start of the analysis. The DMS analysis consisted of a scan rate of 5% RH/step over the full humidity range of 5% relative humidity (RH) to 90% RH. The DMS run was performed isothermally at 25° C.

Row | SMILES | anhydrous Form II content of the filtered solid (PXRD) [1] | form conversion under slurry conditions [1] | crystalline form after the DMS experiment (by PXRD, DSC, TGA) [2] | moisture uptake between 60% RH and 65% RH (DMS adsorption segment) ([2]; gradual uptake until 60% RH, isotherm flat 65% RH to 90% RH, moisture not lost on desorption) | moisture picked up during the adsorption segment (DMS) [2]
1 | CS(=O)(=O)C[C@@H](Oc1ccc(C(F)(F)F)cc1)[C@H]1CCNC1 [anhydrous Form I, (S)-3-[(S)-2-methanesulfonyl-1-(4-trifluoromethylphenoxy)ethyl]pyrrolidine] | > 95% | converted to anhydrous Form II | converted to the monohydrate form | rapid | 
2 | CS(=O)(=O)C[C@@H](Oc1ccc(C(F)(F)F)cc1)[C@H]1CCNC1 [anhydrous Form II, (S)-3-[(S)-2-methanesulfonyl-1-(4-trifluoromethylphenoxy)ethyl]pyrrolidine] |  |  | remains as Form II |  | less than 1 % by weight
3 | CS(=O)(=O)C[C@@H](Oc1ccc(C(F)(F)F)cc1)[C@H]1CCNC1 [monohydrate, (S)-3-[(S)-2-methanesulfonyl-1-(4-trifluoromethylphenoxy)ethyl]pyrrolidine] |  |  | remains as the monohydrate form |  | less than 1 % by weight
